Read-outs that look alike come from different tables or passages of the source.
Legend:
cancer cells = assay: Survival rate of cancer cells after test compound is added (flow cytometry, Annexin V-FITC/PI, clinical specimen); type: cell-based, patient; conditions: Homo sapiens, 18 h, read-out: Survival rate (%) All cells (Stem cells and ordinary cells)
Procedure, shortened: (§1)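 Patient tumour or leukaemia cells, identified by cancer-specific stem-cell markers (CD34+/CD38+ for AML), are treated with compound for 18 hours in serum-free IMDM. Apoptosis is then measured as Annexin V-FITC/PI staining by flow cytometry.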

cancer stem cells = assay: Survival rate of cancer stem cells after test compound is added (flow cytometry, Annexin V-FITC/PI, clinical specimen); type: cell-based, patient; conditions: Homo sapiens, 18 h
Procedure, shortened: as §1

[1] = tested on: PGE2 secreted by synoviocyte; assay: Content of PGE2 in culture supernatant of synoviocyte of RA model rats given test compound; type: in vivo; conditions: rat RA model, dose 30 mg/kg.2d; normal control 8.34 ± 1.29, NaCl 32.44 ± 10.32
Procedure, shortened: (§2)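 Values reflect mediator secretion by synoviocytes taken from arthritic rats dosed at 30 mg/kg.2d. Normal and NaCl groups served as references.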

[2] = tested on: IL-1β secreted by synoviocyte; assay: Content of IL-1β in culture supernatant of synoviocyte of RA model rats given test compound; type: in vivo; conditions: rat RA model, dose 30 mg/kg.2d; normal control 0.16 ± 0.034, NaCl 0.49 ± 0.136
Procedure, shortened: as §2

[3] = tested on: TNF-α secreted by synoviocyte; assay: Content of TNF-α in culture supernatant of synoviocyte of RA model rats given test compound; type: in vivo; conditions: rat RA model, dose 30 mg/kg.2d; normal control 0.38 ± 0.027, NaCl 0.74 ± 0.098
Procedure, shortened: as §2

[4] = Head and neck squamous cell carcinomas

For C=C1C(=O)O[C@H]2[C@H]1CC[C@@](C)(OC)C1CC[C@@](C)(O)[C@@H]12 (stereo partly drawn) [Compound 47], the viability at 10 µM (cancer cells; AML) was 88%, the viability at 20 µM (cancer cells; AML) was 82% and the viability at 10 µM (cancer cells; Brain glioma) was 93%. It also gave a viability at 20 µM (cancer cells; Brain glioma) of 86%, a viability at 10 µM (cancer cells; Brain tumor) of 87% and a viability at 20 µM (cancer cells; Brain tumor) of 83%. The viability at 10 µM (cancer cells; Breast cancer) was 91%, the viability at 20 µM (cancer cells; Breast cancer) was 87% and the viability at 10 µM (cancer cells; CLL) was 91%. It also gave a viability at 20 µM (cancer cells; CLL) of 87%, a viability at 10 µM (cancer cells; CML) of 92% and a viability at 20 µM (cancer cells; CML) of 89%. It also gave a viability at 10 µM (cancer cells; Children hepatoblastoma) of 88%, a viability at 20 µM (cancer cells; Children hepatoblastoma) of 85% and a viability at 10 µM (cancer cells; Colon adenocarcinoma) of 91%. The viability at 20 µM (cancer cells; Colon adenocarcinoma) was 89%, the viability at 10 µM (cancer cells; Colorectal cancer) was 88% and the viability at 20 µM (cancer cells; Colorectal cancer) was 81%. It also gave a viability at 10 µM (cancer cells; Gastric cancer) of 88%, a viability at 20 µM (cancer cells; Gastric cancer) of 89% and a viability at 10 µM (cancer cells; Gastrointestinal tumor) of 89%. For the same compound, the viability at 20 µM (cancer cells; Gastrointestinal tumor) was 81%, the viability at 10 µM (cancer cells; Glioma) was 94% and the viability at 20 µM (cancer cells; Glioma) was 87%. The viability at 10 µM (cancer cells; [4]) was 93%, the viability at 20 µM (cancer cells; [4]) was 92% and the viability at 10 µM (cancer cells; Laryngeal cancer) was 93%. It also gave a viability at 20 µM (cancer cells; Laryngeal cancer) of 86%, a viability at 10 µM (cancer cells; Liver cancer) of 91% and a viability at 20 µM (cancer cells; Liver cancer) of 87%. For the same compound, the viability at 10 µM (cancer cells; Lung adenocarcinoma) was 92%, the viability at 20 µM (cancer cells; Lung adenocarcinoma) was 89% and the viability at 10 µM (cancer cells; Lung cancer) was 93%. It also gave a viability at 20 µM (cancer cells; Lung cancer) of 86%, a viability at 10 µM (cancer cells; Malignant melanoma) of 89% and a viability at 20 µM (cancer cells; Malignant melanoma) of 86%. The viability at 10 µM (cancer cells; Nasopharynx cancer) was 88%, the viability at 20 µM (cancer cells; Nasopharynx cancer) was 85% and the viability at 10 µM (cancer cells; Ovarian cancer) was 91%. The viability at 20 µM (cancer cells; Ovarian cancer) was 88%, the viability at 10 µM (cancer cells; Pancreatic cancer) was 91% and the viability at 20 µM (cancer cells; Pancreatic cancer) was 88%. For the same compound, the viability at 10 µM (cancer cells; Prostate cancer) was 92%, the viability at 20 µM (cancer cells; Prostate cancer) was 89% and the viability at 10 µM (cancer cells; Retinoblastoma) was 87%. For the same compound, the viability at 20 µM (cancer cells; Retinoblastoma) was 83%, the viability at 10 µM (cancer cells; Skin cancer) was 91% and the viability at 20 µM (cancer cells; Skin cancer) was 88%. For the same compound, the viability at 10 µM (cancer stem cells; AML) was 79%, the viability at 20 µM (cancer stem cells; AML) was 73% and the viability at 10 µM (cancer stem cells; Brain glioma) was 85%. It also gave a viability at 20 µM (cancer stem cells; Brain glioma) of 79%, a viability at 10 µM (cancer stem cells; Brain tumor) of 81% and a viability at 20 µM (cancer stem cells; Brain tumor) of 75%. It also gave a viability at 10 µM (cancer stem cells; Breast cancer) of 82%, a viability at 20 µM (cancer stem cells; Breast cancer) of 73% and a viability at 10 µM (cancer stem cells; CLL) of 82%. For the same compound, the viability at 20 µM (cancer stem cells; CLL) was 73%, the viability at 10 µM (cancer stem cells; CML) was 85% and the viability at 20 µM (cancer stem cells; CML) was 77%. It also gave a viability at 10 µM (cancer stem cells; Children hepatoblastoma) of 85%, a viability at 20 µM (cancer stem cells; Children hepatoblastoma) of 79% and a viability at 10 µM (cancer stem cells; Colon adenocarcinoma) of 88%. For the same compound, the viability at 20 µM (cancer stem cells; Colon adenocarcinoma) was 81%, the viability at 10 µM (cancer stem cells; Colorectal cancer) was 79% and the viability at 20 µM (cancer stem cells; Colorectal cancer) was 72%. The viability at 10 µM (cancer stem cells; Gastric cancer) was 82%, the viability at 20 µM (cancer stem cells; Gastric cancer) was 76% and the viability at 10 µM (cancer stem cells; Gastrointestinal tumor) was 78%. It also gave a viability at 20 µM (cancer stem cells; Gastrointestinal tumor) of 74%, a viability at 10 µM (cancer stem cells; Glioma) of 87% and a viability at 20 µM (cancer stem cells; Glioma) of 76%. It also gave a viability at 10 µM (cancer stem cells; [4]) of 86%, a viability at 20 µM (cancer stem cells; [4]) of 78% and a viability at 10 µM (cancer stem cells; Laryngeal cancer) of 85%. It also gave a viability at 20 µM (cancer stem cells; Laryngeal cancer) of 79%, a viability at 10 µM (cancer stem cells; Liver cancer) of 82% and a viability at 20 µM (cancer stem cells; Liver cancer) of 73%. The viability at 10 µM (cancer stem cells; Lung adenocarcinoma) was 85%, the viability at 20 µM (cancer stem cells; Lung adenocarcinoma) was 77% and the viability at 10 µM (cancer stem cells; Lung cancer) was 85%. It also gave a viability at 20 µM (cancer stem cells; Lung cancer) of 79%, a viability at 10 µM (cancer stem cells; Malignant melanoma) of 82% and a viability at 20 µM (cancer stem cells; Malignant melanoma) of 76%. It also gave a viability at 10 µM (cancer stem cells; Nasopharynx cancer) of 82%, a viability at 20 µM (cancer stem cells; Nasopharynx cancer) of 74% and a viability at 10 µM (cancer stem cells; Ovarian cancer) of 84%. For the same compound, the viability at 20 µM (cancer stem cells; Ovarian cancer) was 78%, the viability at 10 µM (cancer stem cells; Pancreatic cancer) was 84% and the viability at 20 µM (cancer stem cells; Pancreatic cancer) was 78%. It also gave a viability at 10 µM (cancer stem cells; Prostate cancer) of 85%, a viability at 20 µM (cancer stem cells; Prostate cancer) of 77% and a viability at 10 µM (cancer stem cells; Retinoblastoma) of 81%. The viability at 20 µM (cancer stem cells; Retinoblastoma) was 75%, the viability at 10 µM (cancer stem cells; Skin cancer) was 84% and the viability at 20 µM (cancer stem cells; Skin cancer) was 78%. For the same compound, the “Content of PGE2 in culture supernatant of synoviocyte (x ± s)” value [1] was 27.95 ± 3.67 ng/mL, the “Content of IL-1β in culture supernatant of synoviocyte (x ± s)” value [2] was 0.34 ± 0.058 ng/mL and the “Content of TNF-α in culture supernatant of synoviocyte (x ± s)” value [3] was 0.64 ± 0.062 ng/mL.

— patent publication US10463644B2, “Uses of sesquiterpene lactone compounds and their derivatives in drugs preparation” (ACCENDATECH, priority 2013, dated 2019)
